Laboratory results published in patent US11253457B2, “Exopolysaccharide-protein complex, a method of preparing said complex and uses thereof” (INSTITUT UNIV. DE CIÈNCIA I TECNOLOGIA, S.A., priority 2016, dated 2022).

Key:
[1] = test system: human hepatocellular carcinoma cell line (HepG2); experiment: MTT tumor cell proliferation assay (HepG2); assay type: cell-based; conditions: HepG2, positive control
Description: The MTT assay was used for measuring the proliferation of the tumor cells. Briefly, human hepatocellular carcinoma cell line (HepG2), human breast adenocarcinoma cell line (MCF7), human lung adenocarcinoma cell line (H1975) and Human melanoma cell line (A375) were seeded at a density of 4×10^4 cells/mL in a volume of 0.1 mL in 96-well plates, respectively. After 24 h, different concentrations of EPCx (1.0, 0.1 and 0.01 mg/ml) were dissolved in the medium was added to each well and incubated for 48 h at 37° C. in a CO2 incubator. 5-Fu (5-fluorouracil) was used as the positive control. After the incubation, 20 μL of MTT solution (5 mg/mL) were added into each well and followed by further incubation for 4-5 h. The culture media were then removed and 100 μL of DMSO was added to each well for 1 h. Absorbance at 570 nm was detected by microplate ELISA reader.

TNF-α [2] = experiment: Real-time PCR of TNF-α mRNA in THP-1 cells stressed with LPS; assay type: cell-based; conditions: human monocyte-like cells (THP-1), LPS 10 μg/ml alone
Description: (§1) The capacity of EPS to modulate the inflammatory response was evaluated in vitro in human primary keratinocytes (HEK) and human monocyte-like cells (THP-1) stressed with LPS (lipopolysaccharide). The cells were pretreated with different concentrations of exopolysaccharide-protein complex (1, 0.1 and 0.01 mg/ml) for 24 h and with 10 μg/ml of LPS for 24 h. Controls of HEK and THP-1 cells treated only with the different concentrations of exopolysaccharide-protein complex (1.0, 0.1 and 0.01 mg/ml) were also prepared.
(§2) Expression of mRNA for the cytokines IL-6, IL-8, IL-10 and TNF-α was analyzed by real-time PCR and the NF-κB activation was measured using a luciferase reporter gene assay.
(§3) Real-time PCR: Total RNA was extracted with the RNA Isolation Kit (ThermoFischer Scientific) according to the manufacturer's recommendations. 1 ng of RNA was reverse transcribed into complementary DNA (cDNA) using Superscript One-Step RT-PCR kit with platinum Taq according to the instructions (Invitrogen). Quantification rests on the measure of threshold cycles (CT), which are measured at the beginning of the exponential phase of the reaction and on the normalization of the internal standard curve obtained with the reference gene.

IL-8 [3] = experiment: Real-time PCR of IL-8 mRNA in THP-1 cells stressed with LPS; assay type: cell-based; conditions: human monocyte-like cells (THP-1), LPS 10 μg/ml alone
Description: as §1, §2, §3

TNF-α [4] = experiment: Real-time PCR of TNF-α mRNA in keratinocytes stressed with LPS; assay type: cell-based, human; conditions: LPS 10 μg/ml alone
Description: as §1, §2, §3

IL-6 [5] = experiment: Real-time PCR of IL-6 mRNA in keratinocytes stressed with LPS; assay type: cell-based, human; conditions: LPS 10 μg/ml alone
Description: as §1, §2, §3

IL-10 [6] = experiment: Real-time PCR of IL-10 mRNA in keratinocytes stressed with LPS; assay type: cell-based, human; conditions: LPS 10 μg/ml alone
Description: as §1, §2, §3

IL-6 [7] = experiment: Real-time PCR of IL-6 mRNA in THP-1 cells stressed with LPS; assay type: cell-based; conditions: human monocyte-like cells (THP-1), LPS 10 μg/ml alone
Description: as §1, §2, §3

IL-8 [8] = experiment: Real-time PCR of IL-8 mRNA in keratinocytes stressed with LPS; assay type: cell-based, human; conditions: LPS 10 μg/ml alone
Description: as §1, §2, §3

IL-10 [9] = experiment: Real-time PCR of IL-10 mRNA in THP-1 cells stressed with LPS; assay type: cell-based; conditions: human monocyte-like cells (THP-1), LPS 10 μg/ml alone
Description: as §1, §2, §3

| Compound | IC50 [1] [µM] | Gene expression (mRNA, real-time PCR) TNF-α (TNF-α [2]) | Gene expression (mRNA, real-time PCR) IL-8 (IL-8 [3]) | Gene expression (mRNA, real-time PCR) TNF-α (TNF-α [4]) | Gene expression (mRNA, real-time PCR) IL-6 (IL-6 [5]) | Gene expression (mRNA, real-time PCR) IL-10 (IL-10 [6]) | Gene expression (mRNA, real-time PCR) IL-6 (IL-6 [7]) | Gene expression (mRNA, real-time PCR) IL-8 (IL-8 [8]) | Gene expression (mRNA, real-time PCR) IL-10 (IL-10 [9]) |
| --- | --- | --- | --- | --- | --- | --- | --- | --- | --- |
| O=c1[nH]cc(F)c(=O)[nH]1 [5-fluorouracil] | 10 | – | – | – | – | – | – | – | – |
| lipopolysaccharide [LPS] | – | 67 | 82 | 67 | 62 | 7 | 73 | 59 | 5 |
